Laboratory results taken from paper PMC6199744, “Development of Chemical Proteomics for the Folateome and Analysis of the Kinetoplastid Folateome” (ACS Infectious Diseases, 2018).

Tested on: L. major lysate proteins
Assay: Multitargeted bead mixture chemoproteomics, single concentration competition, proteome-wide
Assay type: binding

Nc1nc2c(c(=O)[nH]1)N(C=O)C(CNc1ccc(C(=O)N[C@@H](CCC(=O)O)C(=O)O)cc1)CN2 (stereo partly drawn) [LEU, leucovorin]
fold change relative to vehicle control (protein LMJF.35.1220, SHORT CHAIN DEHYDROGENASE, PUTATIVE): 1.29
fold change relative to vehicle control (protein LMJF.35.1380, MITOCHONDRIAL PROCESSING PEPTIDASE, BETA SUBUNIT, PUTATIVE): 0.96
fold change vs vehicle control (protein LMJF.35.1830 HY[…], CONSERVED): 1.03
fold change vs vehicle control (protein LMJF.35.3340 6-phosphogluconate dehydrogenase): 1.03
fold change (protein LMJF.35.3700 GIM5A PROTEIN, PUTATIVE,GLYCOSOMAL MEMBRANE PROTEIN, vehicle control = 1): 0.87
fold change vs vehicle control (protein LMJF.35.3760 60S RIBOSOMAL PROTEIN L27A/L29, PUTATIVE): 1.05
fold change relative to vehicle control (protein LMJF.35.3840, […] 2 SUBUNIT, PUTATIVE): 1.16
fold change vs vehicle control (protein LMJF.35.3860 T-COMPLEX PROTEIN 1, ETA SUBUNIT, PUTATIVE): 0.98
fold change (protein LMJF.35.4420 MITOCHONDRIAL PHOSPHATE TRANSPORTER, PUTATIVE, vehicle control = 1): 1
fold change relative to vehicle control (protein LMJF.35.4880, HYPOTHETICAL PROTEIN, CONSERVED (TPR repeat, putative)): 1.3
fold change relative to vehicle control (protein LMJF.35.5330, ISOPENTENYL-D[…]-ISOMERASE, PUTATIVE): 1.06
fold change relative to vehicle control (protein LMJF.36.0070, STRESS-INDUCIBLE PROTEIN STI1 HOMOLOG): 1.81
fold change (protein LMJF.36.0480 HYPOTHETICAL PROTEIN, CONSERVED, vehicle control = 1): 1
fold change vs vehicle control (protein LMJF.36.0620 HYPOTHETICAL PROTEIN, CONSERVED): 0.9
fold change vs vehicle control (protein LMJF.36.0930 40S RIBOSOMAL PROTEIN S18, PUTATIVE): 1.19
fold change vs vehicle control (protein LMJF.36.0990 40S RIBOSOMAL PROTEIN S10, PUTATIVE): 0.91
fold change (protein LMJF.36.1140 SHORT CHAIN 3-HYDROXYACYL-COA DEHYDROGENASE, PUTATIVE, vehicle control = 1): 0.94
fold change relative to vehicle control (protein LMJF.36.1260, FRUCTOSE-1,6-BI[…]): 1.16
fold change (protein LMJF.36.1340 N-ACETYLTRANSFERASE SUBUNIT NAT1, PUTATIVE, vehicle control = 1): 0.92
fold change vs vehicle control (protein LMJF.36.1650 PROTEASOME BETA 5 SUBUNIT, PUTATIVE): 0.98
fold change relative to vehicle control (protein LMJF.36.2380, STEROL 24-C-METHYLTRANSFERASE, PUTATIVE): 1.04
fold change vs vehicle control (protein LMJF.36.2950 SUCCINYL-COA LIGASE GDP-FORMING] BETA-CHAIN, PUTATIVE): 0.96
fold change vs vehicle control (protein LMJF.36.3210 14-3-3 PROTEIN-LIKE PROTEIN): 1.08
fold change vs vehicle control (protein LMJF.36.3410 SHORT CHAIN DEHYDROGENASE-LIKE PROTEIN): 0.97
fold change (protein LMJF.36.3460 HYPOTHETICAL PROTEIN, CONSERVED (NIPSNAP, putative), vehicle control = 1): 0.75
fold change (protein LMJF.36.3580 HYPOTHETICAL PROTEIN, CONSERVED (Protein of unknown function (DUF2009), putative), vehicle control = 1): 0.85
fold change (protein LMJF.36.3750 40S RIBOSOMAL PROTEIN S27-1, PUTATIVE, vehicle control = 1): 0.85
fold change vs vehicle control (protein LMJF.36.3910 S-ADENOSYLHOMOCYSTEINE HYDROLASE): 0.94
fold change vs vehicle control (protein LMJF.36.5010 40S RIBOSOMAL PROTEIN SA, PUTATIVE): 1.03
fold change vs vehicle control (protein LMJF.36.5130 HY[…], CONSERVED): 1.01
fold change vs vehicle control (protein LMJF.36.5150 HYPOTHETICAL PROTEIN, CONSERVED): 0.93
fold change relative to vehicle control (protein LMJF.36.5380, NADH DEHYDROGENASE, PUTATIVE): 1.07
fold change vs vehicle control (protein LMJF.36.5390 PHOSPHORIBOSYLPYROPHOSPHATE SYNTHETASE, PUTATIVE): 0.99
fold change vs vehicle control (protein LMJF.36.5620 ISOLEUCYL-TRNA SYNTHETASE, PUTATIVE): 0.94
fold change (protein LMJF.36.6430 PROTEIN TRANSPORT PROTEIN SEC23-LIKE PROTEIN, vehicle control = 1): 1.17
fold change vs vehicle control (protein LMJF.36.6760 HYPOTHETICAL PROTEIN, CONSERVED): 0.87
fold change relative to vehicle control (protein LMJF.[…], MIT[…] BETA SUBUNIT, PUTATIVE): 1.14
fold change relative to vehicle control (protein LMJF.[…], POLY(A) EXPORT PROTEIN, PUTATIVE): 1.24
fold change (vs vehicle control, protein LINJ.20.0630 CYTIDINE TRIPHOSPHATE SYNTHASE, PUTATIVE,CTP SYNTHASE, PUTATIVE): 0.91
fold change (vs vehicle control, protein LINJ.20.1390 COATOMER BETA SUBUNIT, PUTATIVE): 0.96
fold change (vs vehicle control, protein LMJF.05.1140 VACUOLAR ATPASE SUBUNIT-LIKE PROTEIN): 0.75
fold change (vs vehicle control, protein LMJF.07.1090 DELTA-5 FATTY ACID DESATURASE): 0.88
fold change (vs vehicle control, protein LMJF.09.0220 HYPOTHETICAL PROTEIN, CONSERVED): 0.73
fold change (vs vehicle control, protein LMJF.11.1030 HYPOTHETICAL PROTEIN, CONSERVED): 0.86
fold change (vs vehicle control, protein LMJF.14.0640 FATTY ACID ELONGASE, PUTATIVE): 0.71
fold change (vs vehicle control, protein LMJF.14.0705 FATTY ACID ELONGASE, PUTATIVE): 0.92
fold change (vs vehicle control, protein LMJF.14.1120 KINESIN K39, PUTATIVE): 0.96
fold change (vs vehicle control, protein LMJF.16.1610 PROHIBITIN): 1.01
fold change (vs vehicle control, protein LMJF.17.0010 HYPOTHETICAL PROTEIN, CONSERVED): 0.94
fold change (vs vehicle control, protein LMJF.18.1130 RAS-RELATED PROTEIN RAB-5, PUTATIVE): 0.82
fold change (vs vehicle control, protein LMJF.19.1420 CYSTEINE PEPTIDASE A (CPA)): 0.84
fold change (vs vehicle control, protein LMJF.21.0280 HY[…], CONSERVED): 0.97
fold change (vs vehicle control, protein LMJF.22.1560 40S RIBOSOMAL PROTEIN L14, PUTATIVE): 0.93
fold change (vs vehicle control, protein LMJF.23.1220 T-COMPLEX PROTEIN 1, GAMMA SUBUNIT, PUTATIVE): 0.94
fold change (vs vehicle control, protein LMJF.24.0370 ASPARTATE AMINOTRANSFERASE, PUTATIVE): 0.99
fold change (vs vehicle control, protein LMJF.25.1770 ENOYL-COA REDUCTASE, PUTATIVE): 0.97
fold change (vs vehicle control, protein LMJF.26.0170 60S RIBOSOMAL PROTEIN L7, PUTATIVE): 0.85
fold change (vs vehicle control, protein LMJF.26.1550 TRI[…] ALPHA SUBUNIT, MIT[…]-LIKE PROTEIN): 1.09
fold change (vs vehicle control, protein LMJF.26.1610 PROLINE OXIDASE, MITOCHONDRIAL PRECURSOR-LIKE PROTEIN): 0.79
fold change (vs vehicle control, protein LMJF.28.1950 X-PRO, DIPEPTIDYL-PEPTIDASE,SERINE PEPTIDASE, CLAN SC, FAMILY S15, PUTATIVE): 0.96
fold change (vs vehicle control, protein LMJF.31.1070 BIOTIN/LIPOATE PROTEIN LIGASE-LIKE PROTEIN): 0.88
fold change (vs vehicle control, protein LMJF.32.1370 HY[…], CONSERVED): 0.92
fold change (vs vehicle control, protein LMJF.34.0490 IMPORTIN BETA-1 SUBUNIT, PUTATIVE): 1.14
fold change (vs vehicle control, protein LMJF.34.4060 UBIQUITIN HYDROLASE, PUTATIVE,CYSTEINE PEPTIDASE, CLAN CA, FAMILY C19, PUTATIVE): 0.88
fold change (vs vehicle control, protein LMJF.36.1600 PROTEASOME ALPHA 1 SUBUNIT, PUTATIVE): 0.98
fold change (vs vehicle control, protein LMJF.[…] RIBOSOMAL PROTEIN S7, PUTATIVE): 0.99
